Measurements published in the CheMixHub viscosity set.
“And” between values parts separate entries of the source, which are not always exact repeats. Identical values can stand only once.

Experiment: xn = mol fraction of the nth substance listed

CC(O)CC(C)(C)O (stereo not given) + CN(C)c1ccccc1
viscosity [mPa·s], 101 kPa
Settings	x1 = 0.0947	x1 = 0.1893	x1 = 0.2866	x1 = 0.3878	x1 = 0.4988	x1 = 0.5875	x1 = 0.6895	x1 = 0.7899	x1 = 0.8859
308.15 K	1.042	1.107	1.216	1.395	1.761	2.037	2.999	5.285	9.275
318.15 K	0.8643	0.9274	1.015	1.185	1.416	1.688	2.505	4.534	8.117

Cc1cccc(C)c1 + CS(C)=O
viscosity [mPa·s], 101.3 kPa
Settings	x2 = 0.1004	x2 = 0.2027	x2 = 0.3047	x2 = 0.4044	x2 = 0.5057	x2 = 0.6045	x2 = 0.705	x2 = 0.803	x2 = 0.9011
298.15 K	0.631	0.7	0.782	0.877	0.99	1.116	1.269	1.45	1.68
303.15 K	0.593	0.657	0.73	0.815	0.914	1.026	1.168	1.325	1.528
308.15 K	0.561	0.617	0.684	0.76	0.85	0.952	1.076	1.219	1.397

Cc1ccc(O)cc1 + Cc1ccccc1
308.15 K, 101 kPa
Settings	viscosity [mPa·s]
x1 = 0.0324	0.5202
x1 = 0.0983	0.5823
x1 = 0.2079	0.7295
x1 = 0.305	0.9088
x1 = 0.417	1.201
x1 = 0.58	1.867
x1 = 0.6813	2.636
x1 = 0.7299	3.2
x1 = 0.8385	4.646
x1 = 0.8532	5.08
x1 = 0.9349	6.873

Cc1cccc(C)c1 + CCCO
viscosity [mPa·s], 100 kPa
Settings	298.15 K	308.15 K
x2 = 0.0641	0.5986	0.5469
x2 = 0.125	0.604	0.5561
x2 = 0.2247	0.6335	0.5935
x2 = 0.3538	0.694	0.633
x2 = 0.4693	0.779	0.6938
x2 = 0.5733	0.888	0.7826
x2 = 0.6675	1.006	0.8918
x2 = 0.7531	1.144	0.964
x2 = 0.8313	1.316	1.102
x2 = 0.903	1.509	1.277
x2 = 0.969	1.796	1.464

O=S1(=O)CCCC1 + Cc1ccccc1C
viscosity [mPa·s], 101.3 kPa
Settings	x2 = 0.1118	x2 = 0.2206	x2 = 0.3267	x2 = 0.4301	x2 = 0.5311	x2 = 0.6293	x2 = 0.7254	x2 = 0.8191	x2 = 0.9105
303.15 K	6.89	4.875	3.582	2.692	2.066	1.618	1.243	1.04	0.8453
323.15 K	4.358	3.169	2.397	1.854	1.456	1.173	0.9211	0.8044	0.6503

CC(O)CC(C)(C)O (stereo not given) + Cc1ccccc1
viscosity [mPa·s], 101 kPa
Settings	x1 = 0.1346	x1 = 0.1954	x1 = 0.2938	x1 = 0.3816	x1 = 0.4929	x1 = 0.5952	x1 = 0.6969	x1 = 0.7998	x1 = 0.8958
308.15 K	0.6243	0.7011	0.8906	1.182	1.708	2.106	3.293	5.905	9.863
318.15 K	0.4797	0.5572	0.739	0.983	1.41	1.753	2.719	4.872	8.571

O=S1(=O)CCCC1 + CCC(C)O
viscosity [mPa·s], 101 kPa
Settings	x1 = 0.0998	x1 = 0.1988	x1 = 0.2898	x1 = 0.3908	x1 = 0.4973	x1 = 0.5943	x1 = 0.7033	x1 = 0.78	x1 = 0.9045
303.15 K	2.151	–	2.299	2.55	2.933	3.428	4.266	5.138	7.383
308.15 K	1.858	1.884	2.015	2.246	2.597	3.049	3.799	4.576	6.529
313.15 K	1.615	1.655	–	1.993	2.316	2.728	3.407	4.097	5.806

Cc1ccc(O)cc1 + CCCC(=O)O
viscosity [mPa·s], 101 kPa
Settings	x2 = 0.1119	x2 = 0.2208	x2 = 0.327	x2 = 0.4305	x2 = 0.5313	x2 = 0.6297	x2 = 0.7257	x2 = 0.8193	x2 = 0.9107
298.15 K	11.14	8.918	7.131	5.694	4.541	3.617	2.884	2.319	1.88
308.15 K	6.522	5.57	4.738	4.049	3.417	2.851	2.364	1.922	1.517
318.15 K	5.117	4.435	3.835	3.299	2.808	2.362	1.987	1.643	1.256

O=S(=O)(Cl)Cl + Cc1cc(C)cc(C)c1
298.15 K, 101 kPa
Settings	viscosity [mPa·s]
x1 = 0.172	0.6735
x1 = 0.323	0.6885
x1 = 0.515	0.6997
x1 = 0.645	0.7028
x1 = 0.669	0.7025
x1 = 0.804	0.6976

Cc1cccc(C)c1 + CCCCCCCCCCCC
323.15 K, 100 kPa
Settings	viscosity
x1 = 0.453	0.682 mPa·s and 0.683 mPa·s
x1 = 0.757	0.538 mPa·s and 0.539 mPa·s

Cc1cccc(C)c1 + CCC(C)O
308.15 K, 101 kPa
Settings	viscosity [mPa·s]
x2 = 0.0658	0.532
x2 = 0.1295	0.544
x2 = 0.2112	0.563
x2 = 0.3085	0.592
x2 = 0.3828	0.622
x2 = 0.4366	0.653
x2 = 0.5058	0.696
x2 = 0.6047	0.792
x2 = 0.698	0.919
x2 = 0.8006	1.071
x2 = 0.9493	1.724

Cc1ccc(O)cc1 + CN(C)C=O
viscosity [mPa·s], 101 kPa
Settings	303.15 K	308.15 K	313.15 K	318.15 K
x1 = 0.0758	0.908	0.787	0.769	0.732
x1 = 0.1553	1.098	0.988	0.913	0.845
x1 = 0.2404	1.444	1.208	–	1.087
x1 = 0.3298	1.832	1.611	1.465	1.339
x1 = 0.4247	2.452	2.165	1.952	1.755
x1 = 0.5155	–	2.886	–	–
x1 = 0.5255	3.351	–	–	2.273
x1 = 0.5256	–	–	2.562	–
x1 = 0.6327	4.534	3.905	3.375	2.954
x1 = 0.7472	6.256	5.298	4.489	3.852
x1 = 0.8692	7.994	6.386	5.777	4.485

C1CC[NH2+]C1.CCCCCCCC(=O)[O-] + CCO
viscosity [mPa·s], 101 kPa
Settings	x1 = 0.1638	x1 = 0.3038	x1 = 0.4308	x1 = 0.5046	x1 = 0.5837	x1 = 0.7453	x1 = 0.838	x1 = 0.9223
293.15 K	3.7	8.2	14	17.06	23.1	36.6	47.3	58.2
298.15 K	3.85	7.02	12.99	16.3	21.3	34.08	44.23	52.4
303.15 K	3	5.7	10.5	13.39	17.6	29.14	36.3	42.7
308.15 K	2.9	7.3	11.21	14.5	18.1	25.4	31.3	36.4
313.15 K	2.7	6.8	9.8	11.79	15	22	26.8	30.3

O=S1(=O)CCCC1 + CC(C)CO
viscosity [mPa·s], 101 kPa
Settings	x1 = 0.0598	x1 = 0.1852	x1 = 0.259	x1 = 0.3891	x1 = 0.5066	x1 = 0.5903	x1 = 0.7089	x1 = 0.7888	x1 = 0.9464
303.15 K	2.606	2.541	2.648	2.978	3.416	3.853	4.763	5.677	6.708
308.15 K	2.261	2.222	2.319	2.611	3.017	3.414	4.229	5.037	7.667
313.15 K	1.971	1.954	2.045	2.309	2.681	3.043	3.778	4.493	6.786

O=S1(=O)CCCC1 + Cc1ccc(C)cc1
viscosity
Settings	x2 = 0.1118	x2 = 0.2206	x2 = 0.3266	x2 = 0.4301	x2 = 0.531	x2 = 0.6293	x2 = 0.7252	x2 = 0.8191	x2 = 0.9106
303.15 K, 101 kPa	6.156 mPa·s and 6.156 mPa·s	4.093 mPa·s and 4.093 mPa·s	2.887 mPa·s and 2.887 mPa·s	2.143 mPa·s and 2.143 mPa·s	1.608 mPa·s and 1.608 mPa·s	1.253 mPa·s and 1.253 mPa·s	0.989 mPa·s and 0.9893 mPa·s	0.812 mPa·s and 0.8122 mPa·s	0.673 mPa·s and 0.6727 mPa·s
303.15 K, 101.3 kPa	6.156 mPa·s	4.093 mPa·s	2.887 mPa·s	2.143 mPa·s	1.608 mPa·s	1.253 mPa·s	0.9893 mPa·s	0.8122 mPa·s	0.6727 mPa·s
313.15 K, 101 kPa	4.883 mPa·s	3.341 mPa·s	2.384 mPa·s	1.791 mPa·s	1.351 mPa·s	1.066 mPa·s	0.8516 mPa·s	0.7111 mPa·s	0.5929 mPa·s
323.15 K, 101 kPa	3.964 mPa·s and 3.964 mPa·s	2.74 mPa·s and 2.74 mPa·s	2 mPa·s and 2 mPa·s	1.526 mPa·s and 1.526 mPa·s	1.166 mPa·s and 1.166 mPa·s	0.925 mPa·s and 0.9254 mPa·s	0.747 mPa·s and 0.7473 mPa·s	0.627 mPa·s and 0.6269 mPa·s	0.53 mPa·s and 0.53 mPa·s
323.15 K, 101.3 kPa	3.964 mPa·s	2.74 mPa·s	2 mPa·s	1.526 mPa·s	1.166 mPa·s	0.9254 mPa·s	0.7473 mPa·s	0.6269 mPa·s	0.53 mPa·s

CCCCCCCCCCCCCCCCCC(=O)O + CC(C)[C@@H]1CC[C@@H](C)C[C@H]1O
100 kPa, x1 = 0.1
Settings	viscosity [mPa·s]
313.15 K	16.61
318.15 K	12.62
323.15 K	9.81
